Several values for one entry are separate records, joined by “and”; a condition that tells them apart may be missing. Equal values may be shown once. Activity calls are given as the source filed them.
Legend:
Cytochrome P450 2C9 = Cytochrome P450 2C9 (Homo sapiens, UniProt P11712)
Cytochrome P450 1A2 = molecular target: T1, Cytochrome P450 1A2 (Homo sapiens, UniProt P05177);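 also: PubChem cytochrome P450 panel assay, CYP1A2 panel member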
T1 sequence (P05177 whole entry): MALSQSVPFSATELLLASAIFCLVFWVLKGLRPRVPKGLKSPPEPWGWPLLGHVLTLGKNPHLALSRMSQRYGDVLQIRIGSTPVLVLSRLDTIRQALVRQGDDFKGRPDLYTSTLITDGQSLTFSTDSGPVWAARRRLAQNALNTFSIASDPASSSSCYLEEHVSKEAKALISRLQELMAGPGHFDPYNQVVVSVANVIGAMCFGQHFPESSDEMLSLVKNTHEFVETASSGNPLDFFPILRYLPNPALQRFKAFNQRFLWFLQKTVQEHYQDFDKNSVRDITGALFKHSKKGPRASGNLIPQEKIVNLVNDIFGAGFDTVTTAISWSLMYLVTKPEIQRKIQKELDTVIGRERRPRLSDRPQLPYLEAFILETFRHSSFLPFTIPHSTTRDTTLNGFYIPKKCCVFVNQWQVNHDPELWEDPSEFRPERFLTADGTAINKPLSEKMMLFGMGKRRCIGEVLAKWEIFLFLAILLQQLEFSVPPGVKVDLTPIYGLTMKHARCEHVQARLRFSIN

INS1 [1] = test: protection of INS-1E cells from cytokine death, dose response, ATP luminescence, dry powder (AID 488844); type: functional, cell-based; conditions: Rattus norvegicus
[2] = molecular target: T2, Alkaline phosphatase, tissue-nonspecific isozyme (Homo sapiens, UniProt P05186); test: TNAP enzyme inhibition by screening hits, dose response, selectivity assay for mouse IAP inhibitor project, biochemical, human TNAP, uHTS hits (AID 488906); type: functional
T2 sequence (P05186 whole entry): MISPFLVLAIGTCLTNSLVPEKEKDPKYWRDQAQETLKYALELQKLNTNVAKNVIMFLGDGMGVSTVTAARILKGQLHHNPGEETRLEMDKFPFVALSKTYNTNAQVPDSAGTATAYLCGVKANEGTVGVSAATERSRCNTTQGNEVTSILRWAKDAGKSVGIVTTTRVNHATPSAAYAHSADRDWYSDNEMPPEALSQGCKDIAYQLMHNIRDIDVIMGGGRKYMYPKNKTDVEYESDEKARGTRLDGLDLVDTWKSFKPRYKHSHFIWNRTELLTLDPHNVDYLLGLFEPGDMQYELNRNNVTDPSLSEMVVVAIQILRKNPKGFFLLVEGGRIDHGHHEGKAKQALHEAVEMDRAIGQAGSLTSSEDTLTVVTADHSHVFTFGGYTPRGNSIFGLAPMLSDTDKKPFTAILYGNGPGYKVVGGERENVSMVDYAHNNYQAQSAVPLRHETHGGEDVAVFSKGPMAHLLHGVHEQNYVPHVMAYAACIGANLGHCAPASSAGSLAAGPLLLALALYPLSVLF

[3] = molecular target: T3, Intestinal-type alkaline phosphatase (Mus musculus, UniProt P24822); test: PubChem AID 488785; type: functional
T3 sequence (P24822 whole entry): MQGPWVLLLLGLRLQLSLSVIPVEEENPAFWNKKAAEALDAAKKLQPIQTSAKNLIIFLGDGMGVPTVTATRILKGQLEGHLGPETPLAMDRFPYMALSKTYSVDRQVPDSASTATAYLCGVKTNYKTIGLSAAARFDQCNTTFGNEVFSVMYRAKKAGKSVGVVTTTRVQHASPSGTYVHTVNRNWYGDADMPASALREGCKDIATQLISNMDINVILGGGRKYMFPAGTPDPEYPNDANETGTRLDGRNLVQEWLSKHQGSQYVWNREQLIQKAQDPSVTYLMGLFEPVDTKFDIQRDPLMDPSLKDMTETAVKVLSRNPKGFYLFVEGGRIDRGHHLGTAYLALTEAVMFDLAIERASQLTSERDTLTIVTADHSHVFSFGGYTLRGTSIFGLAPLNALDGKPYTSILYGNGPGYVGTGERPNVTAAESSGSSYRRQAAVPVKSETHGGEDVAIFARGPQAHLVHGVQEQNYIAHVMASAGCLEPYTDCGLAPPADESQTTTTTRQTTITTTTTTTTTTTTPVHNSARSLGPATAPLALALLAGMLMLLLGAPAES

[4] = molecular target: T4, Intestinal-type alkaline phosphatase (Homo sapiens, UniProt P09923); test: inhibition of human intestinal alkaline phosphatase – biochemical, dose response (AID 488876); type: functional
T4 sequence (P09923 whole entry): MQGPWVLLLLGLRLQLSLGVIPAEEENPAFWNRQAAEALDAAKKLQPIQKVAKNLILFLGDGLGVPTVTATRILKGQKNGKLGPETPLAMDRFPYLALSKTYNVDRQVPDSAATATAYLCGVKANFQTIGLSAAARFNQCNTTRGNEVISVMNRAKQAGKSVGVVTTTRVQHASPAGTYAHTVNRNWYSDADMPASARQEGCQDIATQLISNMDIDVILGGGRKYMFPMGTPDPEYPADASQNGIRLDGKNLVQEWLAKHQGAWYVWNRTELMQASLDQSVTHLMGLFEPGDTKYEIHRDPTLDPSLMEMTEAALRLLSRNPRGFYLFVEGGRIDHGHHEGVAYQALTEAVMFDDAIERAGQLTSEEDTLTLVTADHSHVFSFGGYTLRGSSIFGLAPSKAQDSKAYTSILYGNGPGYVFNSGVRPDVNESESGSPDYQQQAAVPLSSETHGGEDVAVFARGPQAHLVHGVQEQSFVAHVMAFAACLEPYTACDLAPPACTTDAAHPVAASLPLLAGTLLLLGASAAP

[5] = cytotoxicity toward NIH3T3 fibroblasts, dose response, counter-screen, cell-based, ATP luminescence, mouse fibroblasts (AID 2010); type: functional;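 also: cells exposed to compound for about 90 hours before reading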
[6] = inhibitors of Trypanosoma cruzi host-cell infection, confirmation, beta-gal luminescence, NIH3T3 host cells (AID 2630); type: functional, cell-based; conditions: Mus musculus
[7] = inhibitors of intracellular T. cruzi replication, confirmation, NIH3T3 host cells, beta-gal luminescence (AID 2044); type: functional, cell-based;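 also: intracellular parasites grown in NIH/3T3 mouse fibroblasts as host cells; luminescent beta-galactosidase reporter signal from transgenic T. cruzi replicating inside host cells; inhibitors lower the luminescence signal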
[8] = Luminescence Cell-Based/Microorganism Confirmation at Dose of Inhibitors of Trypanosoma cruzi Infection. [Related pubchem assays: 1885, 1968 ]; type: functional
[9] = Luminescence Cell-Based Secondary HTS screen to identify cytotoxic compounds of NIH3T3 cells. [Related pubchem assays: 1885, 1968 ]; type: functional
HEK293 [10] = test: NOD1 signaling inhibitors, primary screen, cell-based, luminescence, uHTS (AID 1578); type: functional; conditions: Homo sapiens
Tumor necrosis factor = Tumor necrosis factor (Homo sapiens, UniProt P01375); test: TNFa-triggered NF-kB activation inhibitors, SAR follow-up, cell-based, revised (AID 2337); type: functional
Chain of Tumor necrosis factor (P01375 whole entry): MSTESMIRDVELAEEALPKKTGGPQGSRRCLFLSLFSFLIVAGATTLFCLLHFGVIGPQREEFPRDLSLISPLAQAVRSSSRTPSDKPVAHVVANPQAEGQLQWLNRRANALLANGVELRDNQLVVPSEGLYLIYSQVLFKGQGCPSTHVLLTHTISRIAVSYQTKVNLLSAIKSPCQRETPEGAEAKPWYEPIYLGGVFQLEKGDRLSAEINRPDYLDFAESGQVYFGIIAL

HEK293 [11] = test: cells; conditions: Homo sapiens
HEK293 [12] = test: cells; type: functional, cell-based; conditions: Homo sapiens
HEK293 [13] = test: NOD2 signaling inhibitors in MDP-stimulated cells, cell-based, uHTS, luminescence (AID 2001); type: functional; conditions: Homo sapiens
HEK293 [14] = test: cells; type: functional, cell-based; conditions: Homo sapiens; remark: listed apart in the source
[15] = molecular target: Nucleotide-binding oligomerization domain-containing protein 1 (Homo sapiens, UniProt Q9Y239); test: NOD1 signaling inhibitors, SAR follow-up, revised (AID 2333); type: functional
Chain of Nucleotide-binding oligomerization domain-containing protein 1 (Q9Y239 whole entry, the tested form may be a part): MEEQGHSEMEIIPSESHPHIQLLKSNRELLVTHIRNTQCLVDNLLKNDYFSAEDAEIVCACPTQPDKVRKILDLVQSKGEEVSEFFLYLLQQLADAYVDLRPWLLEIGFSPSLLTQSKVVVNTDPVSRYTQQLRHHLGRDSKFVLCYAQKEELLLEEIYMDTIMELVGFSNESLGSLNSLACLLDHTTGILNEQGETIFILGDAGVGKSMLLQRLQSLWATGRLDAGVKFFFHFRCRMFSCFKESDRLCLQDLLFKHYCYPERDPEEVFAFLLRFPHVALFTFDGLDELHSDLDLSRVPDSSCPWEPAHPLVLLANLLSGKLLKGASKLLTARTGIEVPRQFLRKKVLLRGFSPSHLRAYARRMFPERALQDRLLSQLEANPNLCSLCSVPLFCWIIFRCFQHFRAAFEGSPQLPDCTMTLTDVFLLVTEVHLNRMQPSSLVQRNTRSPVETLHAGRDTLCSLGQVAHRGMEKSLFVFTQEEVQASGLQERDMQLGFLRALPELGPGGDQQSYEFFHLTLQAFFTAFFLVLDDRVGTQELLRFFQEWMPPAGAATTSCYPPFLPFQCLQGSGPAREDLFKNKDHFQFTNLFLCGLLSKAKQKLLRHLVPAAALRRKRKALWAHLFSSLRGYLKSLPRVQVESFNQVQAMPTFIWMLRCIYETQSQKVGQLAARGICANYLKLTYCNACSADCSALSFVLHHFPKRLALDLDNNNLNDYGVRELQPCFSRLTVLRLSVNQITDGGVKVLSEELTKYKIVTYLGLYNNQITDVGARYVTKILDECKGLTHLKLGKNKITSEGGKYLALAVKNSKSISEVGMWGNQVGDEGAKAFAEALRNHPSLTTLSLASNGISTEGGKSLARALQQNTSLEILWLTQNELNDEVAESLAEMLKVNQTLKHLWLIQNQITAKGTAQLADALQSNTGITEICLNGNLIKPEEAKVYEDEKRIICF

[16] = molecular target: T5, Sentrin-specific protease 8 (Homo sapiens, UniProt Q96LD8); type: functional
T5 sequence (Q96LD8 whole entry): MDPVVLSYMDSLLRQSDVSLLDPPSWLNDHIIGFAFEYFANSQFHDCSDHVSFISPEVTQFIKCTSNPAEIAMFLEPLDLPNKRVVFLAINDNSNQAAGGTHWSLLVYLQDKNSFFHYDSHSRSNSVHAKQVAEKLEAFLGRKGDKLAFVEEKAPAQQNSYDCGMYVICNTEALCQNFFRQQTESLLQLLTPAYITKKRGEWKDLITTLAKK

[17] = molecular target: T5, Sentrin-specific protease 8; type: functional; remark: listed apart in the source
[18] = molecular target: T6, Mannose-6-phosphate isomerase (Homo sapiens, UniProt P34949); test: Confirmation of compounds inhibiting phosphomannose isomerase (PMI) via a fluorescence intensity assay using a high concentration of mannose 6-phosphate. [Related pubchem assays (depositor defined):AID1209, AID1220, AID1545, AID1553, AID1620]
T6 sequence (P34949 whole entry): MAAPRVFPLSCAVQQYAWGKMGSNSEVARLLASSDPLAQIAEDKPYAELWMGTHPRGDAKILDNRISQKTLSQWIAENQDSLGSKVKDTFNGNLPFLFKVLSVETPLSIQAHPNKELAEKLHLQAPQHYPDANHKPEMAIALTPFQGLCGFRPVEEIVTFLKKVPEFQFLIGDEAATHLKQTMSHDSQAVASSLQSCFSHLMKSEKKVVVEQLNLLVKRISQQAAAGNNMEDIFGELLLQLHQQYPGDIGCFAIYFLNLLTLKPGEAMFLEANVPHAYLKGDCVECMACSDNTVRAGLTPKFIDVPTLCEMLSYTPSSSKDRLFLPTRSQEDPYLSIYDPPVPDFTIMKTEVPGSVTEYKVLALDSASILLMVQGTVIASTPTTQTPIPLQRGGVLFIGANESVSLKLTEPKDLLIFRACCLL

Phosphomannomutase 2 = Phosphomannomutase 2 (Homo sapiens, UniProt O15305); test: Counter screen SAR assay for PMM2 inhibitors via a fluorescence intensity assay. [Related pubchem assays (depositor defined):AID1545, AID1574]
Chain of Phosphomannomutase 2 (O15305 whole entry): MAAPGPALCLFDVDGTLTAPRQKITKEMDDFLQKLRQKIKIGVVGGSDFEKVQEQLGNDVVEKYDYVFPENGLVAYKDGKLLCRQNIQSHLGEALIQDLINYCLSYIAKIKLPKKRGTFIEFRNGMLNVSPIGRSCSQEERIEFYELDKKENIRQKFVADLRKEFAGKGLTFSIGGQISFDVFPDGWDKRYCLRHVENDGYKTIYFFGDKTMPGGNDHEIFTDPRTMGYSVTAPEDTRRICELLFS

[19] = molecular target: T6, Mannose-6-phosphate isomerase; test: PMI enzyme inhibitors, confirmation, biochemical, fluorescence intensity (AID 1535)
Phospholipase D2 = Phospholipase D2 (Homo sapiens, UniProt O14939); test: PLD2 inhibitor potency in cells, dose response (AID 602147); type: functional;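 also: cellular assay in HEK293 cells overexpressing GFP-tagged PLD2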
Chain of Phospholipase D2 (O14939 whole entry): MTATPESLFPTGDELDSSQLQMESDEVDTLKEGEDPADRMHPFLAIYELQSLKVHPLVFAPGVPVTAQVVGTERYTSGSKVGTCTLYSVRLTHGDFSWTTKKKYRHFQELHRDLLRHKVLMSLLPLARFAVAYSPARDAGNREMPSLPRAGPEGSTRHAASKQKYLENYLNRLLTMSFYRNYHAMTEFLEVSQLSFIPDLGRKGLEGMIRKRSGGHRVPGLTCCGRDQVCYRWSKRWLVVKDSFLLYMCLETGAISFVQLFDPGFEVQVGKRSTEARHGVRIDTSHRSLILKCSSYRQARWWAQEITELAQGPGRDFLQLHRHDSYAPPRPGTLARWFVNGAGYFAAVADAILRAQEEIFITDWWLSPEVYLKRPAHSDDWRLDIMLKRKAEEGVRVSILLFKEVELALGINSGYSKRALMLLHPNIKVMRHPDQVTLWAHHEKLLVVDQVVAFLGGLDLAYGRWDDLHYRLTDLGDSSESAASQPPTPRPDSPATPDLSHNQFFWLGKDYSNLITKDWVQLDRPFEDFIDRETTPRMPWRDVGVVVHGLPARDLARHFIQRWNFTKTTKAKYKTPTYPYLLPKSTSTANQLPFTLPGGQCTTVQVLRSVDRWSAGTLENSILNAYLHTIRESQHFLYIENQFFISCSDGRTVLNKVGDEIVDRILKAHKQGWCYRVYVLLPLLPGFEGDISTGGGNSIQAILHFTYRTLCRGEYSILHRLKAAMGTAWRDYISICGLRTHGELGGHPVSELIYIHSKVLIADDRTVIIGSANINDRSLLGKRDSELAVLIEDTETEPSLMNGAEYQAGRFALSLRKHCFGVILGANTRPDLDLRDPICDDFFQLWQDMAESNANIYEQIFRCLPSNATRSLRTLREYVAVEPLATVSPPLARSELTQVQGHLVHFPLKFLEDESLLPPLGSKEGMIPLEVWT

[20] = molecular target: T3, Intestinal-type alkaline phosphatase; test: PubChem AID 488875; type: functional
[21] = molecular target: T4, Intestinal-type alkaline phosphatase; test: human IAP activators, dose response, biochemical, luminescent, uHTS hits, set 2 (AID 488817); type: functional;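 also: potency of activators that raise enzyme activity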
Streptokinase A = molecular target: T7, Streptokinase A (Streptococcus pyogenes serotype M1, UniProt P10520); test: S. pyogenes streptokinase expression inhibitors, potency, dose response, plasminogen activation absorbance, OD405 (AID 1914); type: functional, Streptococcus pyogenes M1 GAS;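 also: secreted streptokinase activity via plasminogen activation per viability signal from cell pellet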
T7 sequence (P10520 whole entry): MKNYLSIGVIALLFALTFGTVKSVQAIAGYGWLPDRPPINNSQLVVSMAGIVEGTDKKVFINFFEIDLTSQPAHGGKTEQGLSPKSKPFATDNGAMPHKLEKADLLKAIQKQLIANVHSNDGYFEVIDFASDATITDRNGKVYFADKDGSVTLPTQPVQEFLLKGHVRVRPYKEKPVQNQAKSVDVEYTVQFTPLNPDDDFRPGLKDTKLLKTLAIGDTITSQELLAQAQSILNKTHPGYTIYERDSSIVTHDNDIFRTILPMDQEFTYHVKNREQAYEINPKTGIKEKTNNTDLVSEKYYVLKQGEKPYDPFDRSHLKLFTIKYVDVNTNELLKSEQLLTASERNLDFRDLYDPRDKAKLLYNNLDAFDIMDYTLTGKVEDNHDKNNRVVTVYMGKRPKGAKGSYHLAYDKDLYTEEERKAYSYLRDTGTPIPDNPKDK

[22] = molecular target: T4, Intestinal-type alkaline phosphatase; test: human intestinal alkaline phosphatase activators, dose response, biochemical, luminescence, uHTS hits (AID 463120); type: functional
[23] = molecular target: T2, Alkaline phosphatase, tissue-nonspecific isozyme; test: TNAP enzyme activators, dose response, selectivity assay for human IAP activator project, biochemical, TNAP isozyme, human IAP uHTS hits (AID 488886); type: functional;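 also: potency of compounds raising TNAP activity as a selectivity check on IAP activators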
CAAX prenyl protease 1 = CAAX prenyl protease 1 (Saccharomyces cerevisiae S288c, UniProt P47154); test: Ste24 protease inhibitors, dose response, biochemical, S. cerevisiae, plate reader, cherry-pick (AID 488815)
Chain of CAAX prenyl protease 1 (P47154 whole entry): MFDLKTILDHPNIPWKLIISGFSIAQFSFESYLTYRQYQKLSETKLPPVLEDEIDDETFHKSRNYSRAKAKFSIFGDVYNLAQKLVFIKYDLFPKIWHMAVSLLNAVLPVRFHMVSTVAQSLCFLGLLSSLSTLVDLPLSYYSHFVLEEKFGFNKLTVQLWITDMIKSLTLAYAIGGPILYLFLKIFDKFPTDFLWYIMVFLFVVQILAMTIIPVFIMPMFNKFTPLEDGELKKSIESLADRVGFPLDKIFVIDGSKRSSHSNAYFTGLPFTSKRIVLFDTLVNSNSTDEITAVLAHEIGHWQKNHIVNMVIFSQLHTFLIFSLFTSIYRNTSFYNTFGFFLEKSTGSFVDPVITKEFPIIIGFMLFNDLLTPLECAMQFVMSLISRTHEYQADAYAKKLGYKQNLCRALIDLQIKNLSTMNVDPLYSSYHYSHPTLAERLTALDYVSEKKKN

Trypsin = Trypsin (Sus scrofa, UniProt P00761); test: porcine trypsin inhibitors, dose response, selectivity assay for Rce1 protease inhibitor project, biochemical, quenched peptide fluorescence, cherry-pick (AID 488789)
Chain of Trypsin (P00761 whole entry): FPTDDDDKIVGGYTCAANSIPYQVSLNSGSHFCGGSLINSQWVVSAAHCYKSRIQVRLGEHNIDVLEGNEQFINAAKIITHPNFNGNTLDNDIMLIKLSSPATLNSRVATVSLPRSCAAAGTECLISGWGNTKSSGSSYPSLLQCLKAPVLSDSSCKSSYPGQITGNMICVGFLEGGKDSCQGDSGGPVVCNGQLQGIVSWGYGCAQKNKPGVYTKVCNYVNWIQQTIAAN

CAAX prenyl protease 2 = molecular target: T8, CAAX prenyl protease 2 (Saccharomyces cerevisiae S288c, UniProt Q03530); type: biochemical
T8 sequence (Q03530 whole entry): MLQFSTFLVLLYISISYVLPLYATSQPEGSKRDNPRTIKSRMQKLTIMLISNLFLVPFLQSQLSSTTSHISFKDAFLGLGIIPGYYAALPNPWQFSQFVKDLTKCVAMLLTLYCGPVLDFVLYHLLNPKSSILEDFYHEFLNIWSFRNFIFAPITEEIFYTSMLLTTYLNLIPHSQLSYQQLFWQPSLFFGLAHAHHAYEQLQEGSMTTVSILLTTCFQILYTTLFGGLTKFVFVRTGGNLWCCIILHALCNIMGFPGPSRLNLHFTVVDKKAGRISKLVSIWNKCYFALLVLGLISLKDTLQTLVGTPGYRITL

[24] = molecular target: Lysine-specific demethylase 4C (Homo sapiens, UniProt Q9H3R0); test: GASC-1 (JMJD2C) histone demethylase inhibitors, dose response, biochemical, DELFIA europium, cherry-picked samples (AID 488835); type: functional
INS1 [25] = test: beta cell apoptosis inhibitors, cytokine rescue, dose response, luminescence, retest (AID 449756); type: functional, cell-based; conditions: Rattus norvegicus;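 also: cell death triggered by IL-1 beta plus TNF-alpha plus IFN-gamma mixture; protective hits raise ATP signal compared with cytokine alone wells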
[26] = cytotoxicity in HMLE control line with eGFP shRNA, dose response, counter-screen for HMLE_sh_ECad selective toxicity project, cell-based, HMLE_sh_eGFP, luminescence (AID 463074); type: functional, Homo sapiens;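 also: HMLE human mammary epithelial cells expressing control shRNA against eGFP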
[27] = Luminescence Cell-Based Dose Retest to Confirm Inhibitors of Cancer Stem Cells. [Related pubchem assays (depositor defined):AID2717, AID2721]; type: functional; conditions: Homo sapiens
SUMO E1/E2 = SUMO E1/E2 (Homo sapiens, UniProt P63279+Q9UBE0+Q9UBT2); test: SAR analysis of SUMOylation using HTRF in an in-Vitro dose response assay. [Related pubchem assays (depositor defined):AID2006, AID2011, AID2018, AID2069, AID2658]; type: functional

Chain of Cytochrome P450 2C9 (P11712 whole entry): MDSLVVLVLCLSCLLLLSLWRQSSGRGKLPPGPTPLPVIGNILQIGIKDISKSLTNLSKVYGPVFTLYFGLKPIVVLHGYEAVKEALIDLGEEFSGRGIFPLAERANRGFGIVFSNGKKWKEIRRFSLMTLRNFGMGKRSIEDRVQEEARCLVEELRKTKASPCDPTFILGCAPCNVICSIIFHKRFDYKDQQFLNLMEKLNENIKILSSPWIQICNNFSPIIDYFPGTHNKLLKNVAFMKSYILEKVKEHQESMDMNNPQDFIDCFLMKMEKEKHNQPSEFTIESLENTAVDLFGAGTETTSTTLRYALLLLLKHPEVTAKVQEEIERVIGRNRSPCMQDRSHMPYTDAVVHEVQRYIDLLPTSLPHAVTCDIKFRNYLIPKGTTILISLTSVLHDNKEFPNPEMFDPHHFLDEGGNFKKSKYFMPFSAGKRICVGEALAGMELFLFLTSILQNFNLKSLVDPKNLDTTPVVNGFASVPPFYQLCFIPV

## COc1cc(OC)c(C(=O)CCCN2CCCC2)c(OC)c1 [BUFLOMEDIL]
Cytochrome P450 2C9
  AC50: inactive
Cytochrome P450 1A2
  AC50: inactive

## COc1ccc(S(=O)(=O)N(C)C[C@@H]2Oc3c(NS(=O)(=O)c4ccc(C)cc4)cccc3C(=O)N([C@@H](C)CO)C[C@H]2C)cc1
INS1 [1]
  AC50: > 235 µM (inactive)

## CCn1nc(C)c(CN2CCC(C(=O)Nc3cccc(-c4cccc(Cl)c4)c3)CC2)c1C
[2]
  IC50: 41 µM (active)
[3]
  IC50: 1.87 µM (active)
[4]
  IC50: 4.61 µM (active)

## CCOc1ccc2oc(=O)cc(CN3CCN(Cc4ccccc4)CC3)c2c1
[5]
  EC50: > 30 µM (not active)
[6]
  EC50: 0.903 µM (active)
[7]
  EC50: 0.216 µM (active)
[8]
  EC50: 0.903 µM (inconclusive)
[9]
  EC50: > 195 µM (inconclusive)

## O=C(Nc1ccc(Cl)cc1)c1ccc(CN2CCc3ccccc3C2)cc1
HEK293 [10]
  EC50: 2.29 µM (active)
Tumor necrosis factor
  IC50: 4.66 µM (active) and 491 nM (active)
HEK293 [11]
  IC50: > 20 µM (inactive)
HEK293 [12]
  IC50: 2.11 µM (active)
HEK293 [13]
  IC50: 5.45 µM (inactive)
HEK293 [14]
  IC50: > 20 µM (inactive)
[15]
  IC50: 1.19 µM (active) and 833 nM (active)
[16]
  IC50: > 100 µM (inactive)
[17]
  IC50: 22.1 µM (active)

## COc1ccc2c(=O)n(C3CCCC3)sc2c1
[18]
  IC50: > 100 µM (inactive)
Phosphomannomutase 2
  IC50: > 100 µM (inactive)
[19]
  IC50: 86.8 µM (active)

## O=C(NCCN1CCC2(CC1)C(=O)NCN2c1ccc(F)c(F)c1)c1cc2cc(F)ccc2[nH]1
Phospholipase D2
  IC50: 0.097 µM (active)

## CCC(NC(=S)NC1CCCCC1)c1ccc(C(C)C)cc1 (configuration not stated)
[20]
  EC50: 60.1 µM (active)
[21]
  EC50: 52.4 µM (active)
Streptokinase A
  EC50: 43.4 µM (active)
[22]
  EC50: 81.2 µM (active)
[23]
  EC50: 54.3 µM (active)

## CCOc1ccc(C2C(C(=O)OC)=CN(C(C)c3ccccc3)C=C2C(=O)OC)cc1 (configuration not stated)
CAAX prenyl protease 1
  AC50: 5.08 µM (active)
Trypsin
  AC50: 5.7 µM (active)
CAAX prenyl protease 2
  AC50: > 100 µM (inactive)

## COc1ccccc1N1CCN(C(=O)CSc2nc(C)cc(O)n2)CC1
[24]
  AC50: 10.1 µM (active)

## c1ccc(N2CCN(CC3CCCCC3)CC2)cc1
INS1 [25]
  AC50: 91.4 µM (active)
[26]
  AC50: 95.2 µM (active)
[27]
  AC50: 25.3 µM (active)

## C/C(=N\OCc1nc2ccccc2c(=O)n1/N=C/c1ccccc1O)c1ccccc1
SUMO E1/E2
  IC50: 29.2 µM (active)
